Here are results for five compounds from patent US12152012B2, “BRAG2 inhibitors and applications thereof” (CENTRE NATIONAL DE LA RECHERCHE SCIENTIFIQUE, priority 2018, dated 2024).

The structures appear in SMILES notation.

In assay [1] the test system is TGN46 (trans-Golgi network marker) in Hela cells. Put plainly: Immunostaining and confocal microscopy of Hela cells. It counts as cell-based, human. Conditions: 50 μM.
In assay [2] the target is T1, BRAG2 (BRAG2^Sec7PH) (Homo sapiens, UniProt Q6DN90).
T1 construct: human BRAG2^Sec7 (390-594) and BRAG2^Sec7PH (390-811); made in house
T1 sequence (Q6DN90 512-933): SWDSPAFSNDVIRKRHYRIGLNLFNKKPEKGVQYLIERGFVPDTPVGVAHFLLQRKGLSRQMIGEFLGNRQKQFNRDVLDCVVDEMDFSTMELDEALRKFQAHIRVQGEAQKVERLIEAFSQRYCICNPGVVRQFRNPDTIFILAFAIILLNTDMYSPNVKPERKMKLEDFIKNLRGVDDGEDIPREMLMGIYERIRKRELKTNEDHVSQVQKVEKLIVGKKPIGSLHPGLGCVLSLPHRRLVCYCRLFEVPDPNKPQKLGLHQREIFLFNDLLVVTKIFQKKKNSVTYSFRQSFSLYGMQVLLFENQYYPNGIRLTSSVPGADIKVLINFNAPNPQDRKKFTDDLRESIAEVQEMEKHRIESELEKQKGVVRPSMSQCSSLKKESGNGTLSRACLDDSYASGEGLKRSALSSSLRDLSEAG
Put plainly: Nucleotide exchange kinetics on liposomes, activation of myristoylated Arf1. Type of assay: biochemical. As to the method:
The effect of Bragsin1 on the GEF efficiency of representative human ArfGEFs was evaluated by fluorescence kinetics using highly purified recombinant Arf GTPases and ArfGEFs. In a first series of assays, the Sec7 domains of BIG1, a Golgi ArfGEF, and of ARNO, EFA6a and BRAG2, which function at the plasma membrane, were used. When tested in solution, Bragsin1 had no effect on the activation of Arf1 by any of these Sec7 domains (FIGS. 2a and 14). Separately, we reconstituted the activation of myristoylated Arf1 by the same ArfGEFs on liposomes using ArfGEF constructs that contain a membrane-binding domain (DCB-HUS domain for BIG1, PH domains for the other GEFs). […] BRAG2 activates several Arf isoforms, including the plasma membrane-located Arf6 isoform. […] Bragsin1 and Bragsin2 have the same IC50 towards BRAG2 ([…]) according to dose-response analysis, confirming that Bragsin1 and Bragsin2 can be used interchangeably (FIG. 2d). The specific inhibition of BRAG2 by Bragsin in vitro predicts that BRAG2 silencing by siRNA should yield the same phenotype as treatment by the small molecule. Silencing of BRAG2 induced the redistribution of TGN46 into tubular or punctate structures, which phenocopied the effects induced by Bragsin (FIGS. 2e, 17 and 18). […] Silencing of ARNO, which is located at the plasma membrane, had no effect on TGN46 distribution. Overexpression of BRAG2-mCherry rescued the dispersion of the TGN46 structure induced by Bragsin, which is consistent with the silencing experiments (FIG. 2f). Bragsin is a specific inhibitor of the ArfGEF BRAG2 in vitro and in cells according to these experiments. These oexperiments identify a mechanism of inhibition that requires the membrane to manifests itself.
Bovine Δ17Arf1 and human Δ13Arf6, full-length myristoylated Arf1 and Arf6, human BRAG2^Sec7 (390-594) and BRAG2^Sec7PH (390-811), human EFA6^Sec7 (527-727) and EFA6^Sec7PHCt (527-1024), ARNO^Sec7 (50-256), BIG1^Sec7 (691-889), BIG1^DcbHusSec7 (2-888) and ARNO^Sec7PH (50-399) were expressed and purified as in (Benabdi, S. et al. Family-wide Analysis of the Inhibition of Arf Guanine Nucleotide Exchange Factors with Small Molecules: Evidence of Unique Inhibitory Profiles. Biochemistry 56, 5125-5133 (2017)) and references therein. BRAG2^Sec7PH mutants were purified as the wild type protein. Purification of human full-length Rac1 carrying a 6xHis tag in C-terminus and human TRIO^DH1PH1 (1232-1550) was described in (Peurois, F. et al. Characterization of the activation of small GTPases by their GEFs on membranes using artificial membrane tethering. Biochem J 474, 1259-1272 (2017)).
Lipids (of natural origin) were from Avanti Polar Lipids, except NBD-PE from Sigma. Liposomes were prepared as described in (Aizel, K. et al. Integrated conformational and lipid-sensing regulation of endosomal ArfGEF BRAG2. PLOS Biol 11, e1001652 (2013)) and extruded at 0.2 μm. For the Arf GEF specificity studies, liposomes contained 48% phosphatidylcholine (PC), 20% phosphatidylethanolamine (PE), 30% phosphatidylserine (PS) and 2% phosphatidylinositol-4,5-bisphosphate (PIP2). For Rac activation assay, liposomes contained 43% PC, 20% PE, 10% PS, 20% cholesterol, 2% PIP2, 5% NiNTA lipids and 0.2% NBD-PE. To exclude aggregation or disruption of the liposomes, their size distribution was controlled before and after experiments by dynamic light scattering as described in (Benabdi, S. et al. Biochemistry 56, 5125-5133 (2017)). Dose-response and flotation assays were carried out with liposomes containing 37.9% PC, 20% PE, 20% PS, 2% PIP2, 20% cholesterol and 0.1% NBD-PE. Flotation assays were carried out as in 18.
Nucleotide exchange kinetics were monitored by tryptophan fluorescence with excitation/emission wavelengths of 292/340 nm using a Cary Eclipse fluorimeter (Varian) at 37° C. and under continuous stirring as described in ^50,51. […]

In the case of `COc1cc(OC)c2oc(C(F)(F)F)cc(=O)c2c1[N+](=O)[O-]` [Bragsin3, 6,8-dimethoxy-5-nitro-2-(trifluoromethyl)-4H-chromen-4-one], the “Dispersion of TGN46 marker” value in assay [1] is given as “disperses”. Also, the “Inhibition of BRAG2 in the presence of liposomes” value in assay [2] (50 μM compound vs DMSO, myristoylated Arf1, liposomes) is listed as “strongly inhibits”.
For the compound `COc1ccc2oc(C(F)(F)F)cc(=O)c2c1` [Compound 3, 6-methoxy-2-(trifluoromethyl)-4H-chromen-4-one], in assay [1], the “Dispersion of TGN46 marker” value is reported as “not capable to disperse”.
Same read-out and setting: for `COc1ccc2oc(C(F)(F)F)cc(=O)c2c1C=O` [Compound 5, 6-methoxy-4-oxo-2-(trifluoromethyl)-4H-chromene-5-carbaldehyde] the value was “less effect”.
In the case of `COc1ccc2oc(C(F)(F)F)cc(=O)c2c1C(=O)O` [Compound 6, 6-methoxy-4-oxo-2-(trifluoromethyl)-4H-chromene-5-carboxylic acid], the “Dispersion of TGN46 marker” value in assay [1] is listed as “not capable to disperse”.
Take `Cc1ccc2c(c1[N+](=O)[O-])C(=O)CC(O)(C(F)(F)F)O2` (stereo not drawn) [Compound 13, 2-hydroxy-6-methyl-5-nitro-2-(trifluoromethyl)chroman-4-one]: the “Biological activity of hydrated derivative” value in assay [2] (derivative formed from Bragsin1 in aqueous solution) was “biologically inactive”.
